{
  "source": "ChEMBL document CHEMBL1156579",
  "about": "“Orally active factor Xa inhibitors: investigation of a novel series of 3-amidinophenylsulfonamide derivatives using an amidoxime prodrug strategy” (Bioorg Med Chem Lett, 2008)",
  "key": {"Coagulation factor X": {"target": "Coagulation factor X (Homo sapiens, UniProt P00742)", "sequence (P00742 41-179 limits assumed)": "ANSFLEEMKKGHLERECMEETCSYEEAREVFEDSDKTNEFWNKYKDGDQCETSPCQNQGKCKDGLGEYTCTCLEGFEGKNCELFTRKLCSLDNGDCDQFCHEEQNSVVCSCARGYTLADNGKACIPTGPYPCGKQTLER", "sequence (P00742 235-488 limits assumed)": "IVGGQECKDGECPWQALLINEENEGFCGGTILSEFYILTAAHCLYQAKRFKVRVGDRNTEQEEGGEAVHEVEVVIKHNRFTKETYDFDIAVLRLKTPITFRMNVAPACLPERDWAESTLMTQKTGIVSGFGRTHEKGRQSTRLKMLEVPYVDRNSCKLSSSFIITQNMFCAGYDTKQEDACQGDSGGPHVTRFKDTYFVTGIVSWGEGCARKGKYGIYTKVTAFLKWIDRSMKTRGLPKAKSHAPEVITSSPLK", "assay": "Inhibition of human factor 10a by Dixon-plot method"}, "[1]": {"assay": "Total clearance in iv dosed rat", "type": "ADME, organism-based", "settings": "in vivo"}, "Trypsin": {"target": "Trypsin (Homo sapiens, UniProt P07477+P07478+P35030)", "assay": "Inhibition of human trypsin by Dixon-plot method", "type": "protein assay"}, "Rattus norvegicus": {"tested_on": "Rattus norvegicus", "assay": "Stability in iv dosed rat assessed as prodrug conversion", "type": "ADME, organism-based", "settings": "in vivo"}, "[2]": {"assay": "Oral bioavailability in rat", "type": "ADME, organism-based", "settings": "in vivo"}, "Prothrombin": {"target": "Prothrombin (Homo sapiens, UniProt P00734)", "assay": "Inhibition of human thrombin by Dixon-plot method"}, "Plasma": {"tested_on": "Plasma", "assay": "Anticoagulant activity in human plasma assessed as concentration required to double prothrombin time", "type": "functional"}, "[3]": {"assay": "Systemic clearance in rat", "type": "ADME, organism-based", "settings": "in vivo"}, "Mus musculus": {"tested_on": "Mus musculus", "assay": "Antithrombotic activity against thromboplastin-induced lethal thromboembolism in po dosed thrombosis mouse model assessed as survival", "type": "functional"}, "[4]": {"assay": "Oral bioavailability in rabbit", "type": "ADME, organism-based, Oryctolagus cuniculus", "settings": "in vivo"}, "[5]": {"assay": "Oral bioavailability in mouse", "type": "ADME, organism-based", "settings": "in vivo"}, "[6]": {"assay": "Oral bioavailability in cynomolgus monkey", "type": "ADME, organism-based, Macaca fascicularis", "settings": "in vivo"}, "[7]": {"assay": "Oral bioavailability in dog", "type": "ADME, organism-based, Canis lupus familiaris", "settings": "in vivo"}, "[8]": {"assay": "Oral bioavailability in mouse at 30 mg/kg", "type": "ADME, organism-based", "settings": "in vivo"}},
  "data": [
    {"smiles": "CC(C)c1ccc(CCNS(=O)(=O)c2cc(C(=N)N)ccc2O)c(NC(=O)C(=O)O)c1", "values": [
      {"measurement": "Ki", "setting": "Coagulation factor X", "result": 9.7, "unit": "nM"},
      {"measurement": "clearance", "setting": "[1]", "result": 20, "unit": "mL/min"}
    ]},
    {"smiles": "CC(C)c1ccc(CCNS(=O)(=O)c2cc(C(=N)N)ccc2Cl)cc1", "values": [
      {"measurement": "Ki", "setting": "Coagulation factor X", "result": 3000, "unit": "nM"},
      {"measurement": "Ki", "setting": "Trypsin", "result": 4000, "unit": "nM"}
    ]},
    {"smiles": "CC(C)c1ccc(CCNS(=O)(=O)c2cc(/C(N)=N/O)ccc2O)cc1", "values": [
      {"measurement": "Activity", "setting": "Rattus norvegicus", "result": 1, "unit": "%"},
      {"measurement": "Ki", "setting": "Coagulation factor X", "result": 7300, "unit": "nM"},
      {"measurement": "clearance", "setting": "[1]", "result": 27, "unit": "mL/min"},
      {"measurement": "bioavailability", "setting": "[2]", "result": 6.6, "unit": "%"}
    ]},
    {"smiles": "CS(=O)(=O)c1ccccc1-c1ccc(CCNS(=O)(=O)c2cc(C(=N)N)ccc2O)c(OCC(=O)O)c1.Cl", "values": [
      {"measurement": "Ki", "setting": "Prothrombin", "result": 57800, "unit": "nM"},
      {"measurement": "Ki", "setting": "Trypsin", "result": 1170, "unit": "nM"},
      {"measurement": "Activity", "setting": "Plasma", "result": 1.01, "unit": "µM"}
    ]},
    {"smiles": "CC(C)c1ccc(CCNS(=O)(=O)c2cc(/C(N)=N/O)ccc2O)c(OCC(=O)O)c1", "values": [
      {"measurement": "Activity", "setting": "Rattus norvegicus", "result": 57, "unit": "%"},
      {"measurement": "Ki", "setting": "Coagulation factor X", "result": "> 10000", "unit": "nM"},
      {"measurement": "clearance", "setting": "[1]", "result": 7.5, "unit": "mL/min"},
      {"measurement": "bioavailability", "setting": "[2]", "result": 9.2, "unit": "%"}
    ]},
    {"smiles": "CC(C)c1ccc(CCN(CC(=O)O)S(=O)(=O)c2cc(C(=N)N)ccc2O)cc1", "values": [
      {"measurement": "clearance", "setting": "[3]", "result": 8.1, "unit": "mL/min"},
      {"measurement": "Ki", "setting": "Coagulation factor X", "result": 14, "unit": "nM"},
      {"measurement": "clearance", "setting": "[1]", "result": 8.1, "unit": "mL/min"},
      {"measurement": "Activity", "setting": "Plasma", "result": 1.4, "unit": "µM"}
    ]},
    {"smiles": "CS(=O)(=O)c1ccccc1-c1ccc(CCNS(=O)(=O)c2cc(C(=N)N)ccc2O)c(NCC(=O)O)c1", "values": [
      {"measurement": "Ki", "setting": "Coagulation factor X", "result": 5.7, "unit": "nM"},
      {"measurement": "clearance", "setting": "[1]", "result": 25, "unit": "mL/min"}
    ]},
    {"smiles": "CC(C)c1ccc(CCNS(=O)(=O)c2cccc(C(=N)N)c2)cc1", "values": [
      {"measurement": "Ki", "setting": "Prothrombin", "result": "> 10000", "unit": "nM"},
      {"measurement": "Ki", "setting": "Coagulation factor X", "result": 2100, "unit": "nM"},
      {"measurement": "IC50", "setting": "Trypsin", "result": 9700, "unit": "nM"}
    ]},
    {"smiles": "CCOC(=O)CN(CCc1ccc(C(C)C)cc1)S(=O)(=O)c1cc(/C(N)=N/O)ccc1O", "values": [
      {"measurement": "Ki", "setting": "Coagulation factor X", "result": 3700, "unit": "nM"},
      {"measurement": "bioavailability", "setting": "[2]", "result": "< 1", "unit": "%"}
    ]},
    {"smiles": "CC(C)c1ccc(CCNS(=O)(=O)c2cc(C(=N)N)ccc2O)cc1", "values": [
      {"measurement": "Ki", "setting": "Prothrombin", "result": "> 10000", "unit": "nM"},
      {"measurement": "Ki", "setting": "Coagulation factor X", "result": 29, "unit": "nM"},
      {"measurement": "Ki", "setting": "Trypsin", "result": 800, "unit": "nM"},
      {"measurement": "clearance", "setting": "[1]", "result": 27, "unit": "mL/min"},
      {"measurement": "bioavailability", "setting": "[2]", "result": 3.7, "unit": "%"},
      {"measurement": "Activity", "setting": "Plasma", "result": 2.6, "unit": "µM"}
    ]},
    {"smiles": "CC(C)c1ccc(CCN(CC(=O)O)S(=O)(=O)c2cc(/C(N)=N/O)ccc2O)cc1", "values": [
      {"measurement": "Activity", "setting": "Rattus norvegicus", "result": 16, "unit": "%"},
      {"measurement": "Ki", "setting": "Coagulation factor X", "result": 7000, "unit": "nM"},
      {"measurement": "clearance", "setting": "[1]", "result": 13, "unit": "mL/min"}
    ]},
    {"smiles": "CS(=O)(=O)c1ccccc1-c1ccc(CCNS(=O)(=O)c2cc(C(=N)N)ccc2O)c(OCC(=O)O)c1", "values": [
      {"measurement": "clearance", "setting": "[1]", "result": 7.5, "unit": "mL/min"}
    ]},
    {"smiles": "COc1ccc(C(=N)N)cc1S(=O)(=O)NCCc1ccc(C(C)C)cc1", "values": [
      {"measurement": "Ki", "setting": "Coagulation factor X", "result": 14000, "unit": "nM"}
    ]},
    {"smiles": "CC(C)c1ccc(CCN(C)S(=O)(=O)c2cc(C(=N)N)ccc2O)cc1", "values": [
      {"measurement": "Ki", "setting": "Coagulation factor X", "result": 59, "unit": "nM"},
      {"measurement": "Ki", "setting": "Trypsin", "result": 770, "unit": "nM"}
    ]},
    {"smiles": "CCOC(=O)COc1cc(C(C)C)ccc1CCNS(=O)(=O)c1cc(C(=N)NO)ccc1O", "values": [
      {"measurement": "ED50", "setting": "Mus musculus", "result": 15.8, "unit": "mg/kg"},
      {"measurement": "Ki", "setting": "Coagulation factor X", "result": 3500, "unit": "nM"},
      {"measurement": "bioavailability", "setting": "[2]", "result": 13, "unit": "%"}
    ]},
    {"smiles": "CCCCOC(=O)COc1cc(-c2ccccc2S(C)(=O)=O)ccc1CCNS(=O)(=O)c1cc(C(=N)NO)ccc1O.Cl", "values": [
      {"measurement": "bioavailability", "setting": "[4]", "result": 23, "unit": "%"},
      {"measurement": "bioavailability", "setting": "[5]", "result": 15, "unit": "%"},
      {"measurement": "bioavailability", "setting": "[6]", "result": 11, "unit": "%"},
      {"measurement": "bioavailability", "setting": "[7]", "result": 4.9, "unit": "%"}
    ]},
    {"smiles": "CC(=N)N1CCC(c2ccc(NC(=O)CN(Cc3cccc(OCC(=O)O)c3)c3cccc(C(=N)N)c3)cc2)CC1", "values": [
      {"measurement": "Ki", "setting": "Prothrombin", "result": 26000, "unit": "nM"},
      {"measurement": "Ki", "setting": "Trypsin", "result": 6170, "unit": "nM"},
      {"measurement": "clearance", "setting": "[1]", "result": 23, "unit": "mL/min"},
      {"measurement": "bioavailability", "setting": "[2]", "result": 0.9, "unit": "%"},
      {"measurement": "Activity", "setting": "Plasma", "result": 0.84, "unit": "µM"}
    ]},
    {"smiles": "CC(C)c1ccc(CCNS(=O)(=O)c2cc(C(=N)N)ccc2O)c(NCC(=O)O)c1", "values": [
      {"measurement": "Ki", "setting": "Coagulation factor X", "result": 62, "unit": "nM"},
      {"measurement": "clearance", "setting": "[1]", "result": 3.2, "unit": "mL/min"}
    ]},
    {"smiles": "CC(C)Oc1ccc(CCNS(=O)(=O)c2cc(C(=N)N)ccc2O)cc1", "values": [
      {"measurement": "Ki", "setting": "Prothrombin", "result": "> 10000", "unit": "nM"},
      {"measurement": "Ki", "setting": "Coagulation factor X", "result": 100, "unit": "nM"},
      {"measurement": "IC50", "setting": "Trypsin", "result": 1700, "unit": "nM"}
    ]},
    {"smiles": "CC(C)c1ccc(CCNS(=O)(=O)c2cc(C(=N)N)ccc2O)c(OCC(=O)O)c1", "values": [
      {"measurement": "Ki", "setting": "Coagulation factor X", "result": 51, "unit": "nM"},
      {"measurement": "clearance", "setting": "[1]", "result": 1.7, "unit": "mL/min"},
      {"measurement": "bioavailability", "setting": "[8]", "result": 38, "unit": "%"},
      {"measurement": "Activity", "setting": "Plasma", "result": 7.2, "unit": "µM"}
    ]},
    {"smiles": "CC(C)(C)c1ccc(CCNS(=O)(=O)c2cc(C(=N)N)ccc2O)cc1", "values": [
      {"measurement": "Ki", "setting": "Coagulation factor X", "result": 27, "unit": "nM"}
    ]}
  ]
}
